The values that follow come from patent US20250091989A1, “SMALL MOLECULE PROTEIN SYNTHESIS MODULATORS” (Interdict Bio, Inc., priority 2023, published 2025).

Holding throughout (format): biochemical
Common to all, as to settings: HeLa S3 lysate, sfGFP/mCherry ratio, 2 hrs at 30° C.

One assay deals with ALK. The assay can be described thus: In vitro transcription-translation (IVTT) reporter assay, ALK test sequence. The method, boiled down:
(§1)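 Coupled transcription-translation in HeLa S3 lysate with reporter plasmids encoding mCherry-P2A-3×FLAG-TEST-sfGFP behind an EMCV IRES. Compounds were half-log titrated (30 μM-0.1 μM in DMSO dilution plate) into master mix, then DNA was added. Reactions ran 2 hrs at 30° C, were PBS-quenched and read for fluorescence.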

A further assay concerns MYC. Briefly: In vitro transcription-translation (IVTT) reporter assay, MYC test sequence. The gist of the method:
as §1

The next assay has as its system KRAS G12D. The assay can be described thus: In vitro transcription-translation (IVTT) reporter assay, KRAS G12D test sequence. The source says: All reporter constructs have been cloned into the pT7CFE1-CHis plasmid (ThermoFisher #88860) using Gibson assembly procedures (NEB #E2611L). The parental pT7CFE1-CHis plasmid contains an EMCV IRES at the 5′UTR for translation initiation, a multiple-cloning site (MCS) for gene insertion, an optional C-terminal His-epitope tag, and polyA sequence in the 3′UTR to regulate mRNA stability. All reporters are designed to be inserted at the MCS to include a red fluorescent protein (mCherry), P2A self-cleaving peptide which releases the preceding mCherry protein product, and a fusion open reading frame containing a 3×FLAG epitope, a peptide sequence of interest (TEST), and green fluorescent protein (sfGFP).
Construct Plasmid Preparation: All plasmids are isolated from MACH1 cells (ThermoFisher) grown overnight in ampicillin-containing luria broth, and purified using ZymoPure Express Plasmid Midiprep Kit (Zymo Research). Constructs are sequenced verified and diluted to a working concentration of 110 ng/μL.
HeLa S3 Lysate Preparation: HeLa S3 cell pellets are acquired from Ipracell/Ipratech (Belgium) and shipped as 4 mL frozen cell pellets on dry ice for storage at −80° C. until use. The procedure for lysate preparation is as follows. Prepare 1× Lysis Buffer, cold and stored on ice:
Each preparation takes 8 cell pellets (4 ml packed volume each, approximately 1.0×10^9 cells per pellet). Thaw cell pellets from −80° C. on ice for 90 mins. Lay pellets horizontally on top of the ice and rotate every 30 mins to ensure even thawing. Once thawed, add 4 mL of cold lysis buffer to each pellet, and using a serological pipet, gently pipet up and down to break up clumps. Incubate resuspended cells in ice for an additional 30 mins (plunged into ice). During 30 min incubation, rinse and RNase-zap (Ambion) glass dounces (use loose pestle “A”), gently dry and place on ice until needed. Prepare RNase-free Eppendorf tubes for spinning and for batch storage. Add batch labels to 1.5-1.7 mL RNase-free microcentrifuge tubes (labeling scheme below). Each batch will have an extra 1.5-1.7 mL RNase-free microcentrifuge tube for 40 μL of lysate, label the top of this tube (labeling scheme below). After 30 min incubation, transfer all 8 mL of cell pellet to dounce. Cell lysis is complete after douncing 100 times. Aliquot cell lysis into 1.5-1.7 mL temporary-microcentrifuge tubes. Place tubes in centrifuge with “fins” out, and spin at 1,200 xg for 5 mins. After the first spin use a 1 mL pipet to resuspend each tube and repeat spin. This acts as an additional lysis step, is more vigorous and increases lysate yield. During second spin get liquid N2 and a fresh conical tube on ice.
After spin is complete, transfer supernatant (lysate) from microcentrifuge tubes into the 50 mL conical tube and keep on ice. Repeat steps 10-14 for all other cell pellets until completed. Once all cell lysate has been transferred to the 50 mL conical tube pipet to mix so the solution is homogenous. Transfer 1 mL of lysate into batch-labeled microcentrifuge tubes and flash freeze in liquid nitrogen. Be sure to pipet up and down to mix throughout transfer step. Place all tubes in the […] for long-term storage.
In vitro transcription-translation assay setup: Each assay includes a master mix containing lysate and shared components, a 96-well plate containing compound titrations for testing, a 96-well DNA plate with reporter constructs to be tested, 96-well skirted PCR plates, and 96-well flat-bottom, black, fluorescent assay plates. […]

Each structure is given as a SMILES string. Counter-ions that a name gives are not always drawn.

For the molecule `COc1ccc(C[C@H]2NC[C@H](O)[C@H]2OC(=O)CCN2CCNCC2)cc1` [V186857, (2R,3S,4S)-4-hydroxy-2-[(4-methoxyphenyl)methyl]pyrrolidin-3-yl 3-(piperazin-1-yl)propanoate], the IC50 is under 10 µM with ALK, over 30 µM in the assay with MYC and over 30 µM in the assay on KRAS G12D.
Turning to `COc1ccc(C[C@H]2NC[C@H](O)[C@H]2OC(=O)CCN2CCN(C)CC2)cc1` [V186858, (2R,3S,4S)-4-hydroxy-2-[(4-methoxyphenyl)methyl]pyrrolidin-3-yl 3-(4-methylpiperazin-1-yl)propanoate; trifluoroacetic acid], the IC50 in the assay with ALK, in the assay with MYC and in the assay with KRAS G12D was over 30 µM throughout.
With `COc1ccc(C[C@H]2NC[C@H](O)[C@H]2OC(=O)CCN2CC(=O)NC(=O)C2)cc1` [V186859, (2R,3S,4S)-4-hydroxy-2-[(4-methoxyphenyl)methyl]pyrrolidin-3-yl 3-(3,5-dioxopiperazin-1-yl)propanoate; trifluoroacetic acid], the IC50 with ALK, with MYC and in the assay on KRAS G12D was under 10 µM throughout.
For the molecule `COc1ccc(C[C@H]2NC[C@H](O)[C@H]2OC(=O)C2CC(=O)N2)cc1` (stereo partly drawn) [V186864, (2R,3S,4S)-4-hydroxy-2-[(4-methoxyphenyl)methyl]pyrrolidin-3-yl 4-oxoazetidine-2-carboxylate; trifluoroacetic acid], the IC50 in the assay on ALK was under 10 µM; in the assay with MYC it was 10 to 20 µM; in the assay on KRAS G12D it was over 30 µM.
For `COc1ccc(C[C@H]2NC[C@H](O)[C@H]2OC(=O)C2CCO2)cc1` (stereo partly drawn) [V186865, (2R,3S,4S)-4-hydroxy-2-(4-methoxybenzyl)pyrrolidin-3-yl oxetane-2-carboxylate FA salt], the IC50 with ALK is under 10 µM; in the assay with MYC it was under 10 µM; in the assay on KRAS G12D, over 30 µM.
As to `COc1ccc(C[C@H]2NC[C@H](O)[C@H]2OC(=O)C2CN(C(C)=O)C2)cc1` [V186866, (2R,3S,4S)-4-hydroxy-2-[(4-methoxyphenyl)methyl]pyrrolidin-3-yl 1-acetylazetidine-3-carboxylate], the IC50 in the assay on ALK is under 10 µM; in the assay with MYC, 10 to 20 µM; in the assay on KRAS G12D, over 30 µM.
With `COc1ccc(C[C@H]2NC[C@H](O)[C@H]2OC(=O)CCN2C(=O)CNC2=O)cc1` [V186870, (2R,3S,4S)-4-hydroxy-2-[(4-methoxyphenyl)methyl]pyrrolidin-3-yl 3-(2,5-dioxoimidazolidin-1-yl)propanoate], the half-inhibitory concentration (IC50) in the assay on ALK is under 10 µM; in the assay with MYC, under 10 µM; in the assay with KRAS G12D, 10 to 20 µM.
Regarding `COc1ccc(C[C@H]2NC[C@H](O)[C@H]2OC(=O)CCC2CNC2)cc1` [V186873, (2R,3S,4S)-4-hydroxy-2-[(4-methoxyphenyl)methyl]pyrrolidin-3-yl 3-(azetidin-3-yl)propanoate], the IC50 in the assay with ALK, in the assay on MYC and in the assay on KRAS G12D was under 10 µM each time.
Consider `C#Cc1ccc(C[C@H]2NC[C@H](O)[C@H]2OC(C)=O)cc1` [V186940], for which the IC50 in the assay with ALK, in the assay with MYC and with KRAS G12D was under 10 µM in each case.
For `COc1ccc(C[C@H]2NC[C@H](O)[C@H]2OC(=O)C2CN(C(=O)C3CCOCC3)C2)cc1` [V186989, (2R,3S,4S)-4-hydroxy-2-[(4-methoxyphenyl)methyl]pyrrolidin-3-yl 1-(oxane-4-carbonyl)azetidine-3-carboxylate; trifluoroacetic acid], the IC50 in the assay on ALK, in the assay on MYC and in the assay with KRAS G12D was over 30 µM in each case.
For the molecule `COc1ccc(C[C@H]2NC[C@H](O)[C@H]2OC(=O)CCC2CCOCC2)cc1` [V186990, (2R,3S,4S)-4-hydroxy-2-[(4-methoxyphenyl)methyl]pyrrolidin-3-yl 3-(oxan-4-yl)propanoate; trifluoroacetic acid], the IC50 in the assay on ALK, in the assay with MYC and in the assay with KRAS G12D was under 10 µM each time.
`CC(=O)O[C@@H]1[C@@H](O)CN[C@@H]1Cc1ccc(C#N)cc1` [V187006, (2R,3S,4S)-2-[(4-cyanophenyl)methyl]-4-hydroxypyrrolidin-3-yl acetate; trifluoroacetic acid]: the IC50 in the assay on ALK, in the assay with MYC and in the assay with KRAS G12D was under 10 µM throughout.
For the molecule `CC(=O)O[C@@H]1[C@@H](O)CN[C@@H]1Cc1ccc(Cl)cc1` [V187009, (2R,3S,4S)-2-[(4-chlorophenyl)methyl]-4-hydroxypyrrolidin-3-yl acetate; trifluoroacetic acid], the IC50 in the assay with ALK, in the assay with MYC and with KRAS G12D was under 10 µM in each case.
For `CC(=O)O[C@@H]1[C@@H](O)CN[C@@H]1Cc1ccc(Br)cc1` [V187010, (2R,3S,4S)-2-[(4-bromophenyl)methyl]-4-hydroxypyrrolidin-3-yl acetate; trifluoroacetic acid], the IC50 in the assay with ALK, in the assay with MYC and with KRAS G12D was under 10 µM throughout.
For `COc1ccc(C[C@H]2NC[C@H](O)[C@H]2OC(=O)C23CC(F)(C2)C3)cc1` [V187044, (2R,3S,4S)-4-hydroxy-2-[(4-methoxyphenyl)methyl]pyrrolidin-3-yl 3-fluorobicyclo[1.1.1]pentane-1-carboxylate; trifluoroacetic acid], the concentration for half-maximal inhibition (IC50) in the assay on ALK is under 10 µM; with MYC it was 10 to 20 µM; with KRAS G12D, over 30 µM.
Turning to `COc1ccc(C[C@H]2NC[C@H](O)[C@H]2OC(=O)Cc2nnc(N)s2)cc1` [V187048, (2R,3S,4S)-4-hydroxy-2-[(4-methoxyphenyl)methyl]pyrrolidin-3-yl 2-(5-amino-1,3,4-thiadiazol-2-yl)acetate], the IC50 in the assay with ALK, with MYC and in the assay with KRAS G12D was under 10 µM in each case.
As for `COc1ccc(C[C@H]2NC[C@H](O)[C@H]2OC(=O)Cc2cc3ccccc3s2)cc1` [V187053, (2R,3S,4S)-4-hydroxy-2-[(4-methoxyphenyl)methyl]pyrrolidin-3-yl 2-(1-benzothiophen-2-yl)acetate], the IC50 with ALK, in the assay on MYC and in the assay with KRAS G12D was under 10 µM each time.
In the case of `COc1ccc(C[C@H]2NC[C@H](O)[C@H]2OC(=O)Cc2cccnc2)cc1` [V187057, (2R,3S,4S)-4-hydroxy-2-[(4-methoxyphenyl)methyl]pyrrolidin-3-yl 2-(pyridin-3-yl)acetate], the 50% inhibitory concentration (IC50) in the assay with ALK, with MYC and with KRAS G12D was under 10 µM each time.
Consider `COc1ccc(C[C@H]2NC[C@H](O)[C@H]2OC(=O)CCC2CC2)cc1` [V187063, (2R,3S,4S)-4-hydroxy-2-[(4-methoxyphenyl)methyl]pyrrolidin-3-yl 3-cyclopropylpropanoate; trifluoroacetic acid], for which the IC50 in the assay with ALK, in the assay with MYC and in the assay on KRAS G12D was under 10 µM each time.
Take `COc1ccc(C[C@H]2NC[C@H](O)[C@H]2OC(=O)C2CC3(C2)CC(N(C)C)C3)cc1` (stereo partly drawn) [V187066, (2R,3S,4S)-4-hydroxy-2-[(4-methoxyphenyl)methyl]pyrrolidin-3-yl 6-(dimethylamino)spiro[3.3]heptane-2-carboxylate]: the figures for the IC50 with ALK, with MYC and with KRAS G12D were 10 to 20 µM, over 30 µM and over 30 µM, respectively.
